Reference: US12318365B2, “Inhibition of dipeptide repeat proteins” (ALS Therapy Development Institute, priority 2019, dated 2025)
No end group written: not given here.

Experiments:
[1] = test system: NSC-34 motor-neuron-like cells; experiment: WST-1 assay (dysmetabolism) in NSC-34 cells; format: cell-based, Mouse; conditions: for dose dependence of abrogation of GR15-induced dysmetabolism / dose dependence of abrogation of PR15-induced dysmetabolism: dose range of the example
Source text: WST-1 Assay: The WST-1 assay is a colorimetric assay that measures cell metabolism. Cells with a healthy metabolism contain mitochondrial dehydrogenase enzymes that remove hydrogen atoms from certain molecules, resulting in a release of energy that the cell can use to perform critical reactions. In the WST-1 assay, a water soluble tetrazolium salt substrate (known as WST-1) is applied, which readily enters cells and their mitochondria upon application. If cells are viable, their mitochondrial dehydrogenase enzymes will catalyze the reaction to convert this WST-1 substrate to a colored product called Formazan. The production of this colored Formazan product by viable cells can be quantified using a spectrophotometer (plate reader). Higher absorbance readings correspond to greater metabolic activity/cell viability.
NSC-34 Cell Culture: NSC-34 cells (Cedarlane Laboratories, Burlington, ON, CA) were cultured in a complete medium consisting of High Glucose Dulbecco's Modified Eagle Medium (Millipore-Sigma, Burlington, MA, USA) supplemented with 10% US-origin fetal bovine serum (Thermo-Fisher Scientific, Cambridge, MA, USA), 1% 200 mM L-Glutamine solution (Thermo-Fisher Scientific, Cambridge, MA, USA), and 1% 10,000 U/mL Penicillin-Streptomycin solution (Thermo-Fisher Scientific, Cambridge, MA, USA). Prior to preparation of NSC-34 complete medium, L-Glutamine and Penicillin-Streptomycin solutions were aliquoted and stored at −20° C., and DMEM/High Glucose was stored at 4°. […] Prepared complete medium, DPBS, and Trypsin were always heated in a 37° C. water bath before use, and stored at 4° C. between uses. Cell counts for plating were performed using a Hausser Scientific cell counting chamber (Thermo-Fisher Scientific, Cambridge, MA, USA).
Proteins were reconstituted in sterile DMSO (Millipore-Sigma, Burlington, MA, USA) to stock concentrations of 10 mM, and stored at 4° C.
After reconstitution using the solvents specified in Table _, stocks were aliquoted to 15-20 μL and immediately stored at −20° C.
One row on the top and bottom of the plate, and two columns on either side of the plate, were left without cells and contained culture medium only to minimize experimental well volume evaporation. After plating, cells were incubated for 24 h at 37° C., 5% CO2 prior to DRP and/or PRMT inhibitor addition. At time of DRP/PRMT inhibitor addition, desired doses of DRP for challenge and inhibitor for treatment were achieved by diluting aliquots of each stock in warm culture medium. During experiments where both PRMT inhibitors and DRPs were used, PRMT inhibitors were always applied to wells first, and followed by DRP application. […] Inhibitor toxicity controls were included as wells treated with the desired doses of drug for the experiment, but no DRP. DRP toxicity controls were included as wells only treated with the doses of DRP used for challenge. […] Additional controls needed for each endpoint are specified in the “WST-1 Assay” and “LDH Assay” sections of these methods.
WST-1 Assay: Cells were plated and prepared using the steps described in the “Plating NSC-34 and Dosing with DRPs and PRMT Inhibitors” section of these methods. Other controls for this experiment included wells containing only cells in culture medium, and culture medium only. At time of testing, culture medium was removed from wells and replaced with a warmed, sterile-filtered solution consisting of DPBS with calcium and magnesium, and 4.5 g/L D-glucose (Millipore-Sigma, Burlington, MA, USA). To wells containing 200 μL DPBS-glucose solution, 20 μL/well WST-1 reagent (Millipore-Sigma, Burlington, MA) was applied and plates were then incubated at 37° C., 5% CO2 for 1 h before plates were read at 450 nm on a SpectraMax M3 Microplate Reader (Molecular Devices, San Jose, CA, USA). Experiments included three replicates per condition.

NSC-34 cells = experiment: LDH assay (cytotoxicity) in NSC-34 cells; format: cell-based; conditions: for dose dependence of abrogation of GR15-induced cytotoxicity / dose dependence of abrogation of PR15-induced cytotoxicity: dose range of the example
Source text: LDH Assay: The LDH assay is a colorimetric assay that measures cell toxicity and death. […] When cells lose membrane integrity, an enzyme found in living cells called lactate dehydrogenase (LDH) is released into the solution surrounding the dying cell. A form of programmed cell death, apoptosis, as well as other forms of cell death also ultimately lead to a cell's membrane being destroyed, resulting in a large release of LDH into the extracellular space. Thus, LDH is an excellent marker not only for necrosis, but for all instances of cell death. In an LDH assay, a sample of the solution surrounding the cell is isolated, and transferred to a plate containing an LDH reaction mixture. This reaction mixture contains a tetrazolium salt intermediate and other reaction constituents that, when exposed to LDH, convert the tetrazolium salt into a colored Formazan product. This Formazan product can be quantified spectrophotometrically. Greater absorbance readings correspond to more cell death.
One row on the top and bottom of the plate, and two columns on either side of the plate, were left without cells and contained culture medium only to minimize experimental well volume evaporation. After plating, cells were incubated for 24 h at 37° C., 5% CO2 prior to DRP and/or PRMT inhibitor addition. At time of DRP/PRMT inhibitor addition, desired doses of DRP for challenge and inhibitor for treatment were achieved by diluting aliquots of each stock in warm culture medium. During experiments where both PRMT inhibitors and DRPs were used, PRMT inhibitors were always applied to wells first, and followed by DRP application. […] Inhibitor toxicity controls were included as wells treated with the desired doses of drug for the experiment, but no DRP. DRP toxicity controls were included as wells only treated with the doses of DRP used for challenge. Once dosed, plates were incubated for 24 h at 37° C., 5% CO2 prior to running the WST-1 or LDH assay endpoints. Additional controls needed for each endpoint are specified in the “WST-1 Assay” and “LDH Assay” sections of these methods.
LDH Assay: Cells were plated and prepared using the steps described in the “Plating NSC-34 and Dosing with DRPs and PRMT Inhibitors” section of these methods. Other controls for this experiment included several sets of wells with only cells in culture medium (one triplicate designated for “untreated,” one triplicate designated for “lysed” positive control), and wells with culture medium only. An additional control added only to the transfer plate at time of testing was 5 μL LDH only. Testing was performed using colorimetric LDH-Cytotoxicity Assay Kit II (Abcam, Cambridge, MA, USA) per manufacturer's instructions. Final read at 450 nm was performed on a SpectraMax M3 Microplate Reader (Molecular Devices, San Jose, CA, USA). Data analysis included calculation of % LDH release using the following equation: […]
Experiments included three replicates per condition. Each experiment was repeated twice (executed three times total).
(§1) The following conditions were plated in triplicate.
Plates were incubated for 24 h at 37° C., 5% CO2. Cells were tested and data were analyzed by LDH assay.
Cells were plated in culture medium in 2 96-well plates at a density of 3.7×10^4 cells per well, and incubated overnight at 37° C., 5% CO2.
as §1
Cells were plated in culture medium in 2 96-well plates at a density of 3.7×10^4 cells per well, and incubated overnight at 37° C., 5% CO2. […]
The following conditions were plated in triplicate. […]

[2] = 3 μM GR15, 24 h, doses 0.2-20 μM

Compound: O=C(NC[C@H](O)CN1CCc2ccccc2C1)c1ccnc(NC2CCC2)c1 [GSK591]
- dysmetabolism independently of PR15 challenge vs untreated controls ([1]; no DRP, doses 33, 100 and 200 μM): produced dysmetabolism

Compound: CCOCC1(COCC)CCC(c2n[nH]cc2CN(C)CCNC)CC1 [GSK3368715]
- dose dependence of abrogation of GR15-induced dysmetabolism ([1]; 3 μM GR15 challenge, 24 h): dose-dependently abrogated
- abrogation of GR15-induced dysmetabolism ([1]; 3 μM GR15 challenge, 24 h, inhibitor doses 1 and 3 μM): completely abrogated
- dose dependence of abrogation of PR15-induced dysmetabolism ([1]; 3 μM PR15 challenge, 24 h): dose-dependently abrogated
- abrogation of PR15-induced dysmetabolism ([1]; 3 μM PR15 challenge, 24 h, inhibitor doses 1 and 3 μM): completely abrogated
- abrogation of GR15-induced cytotoxicity (NSC-34 cells; 3 μM GR15, 24 h, dose 1 μM): completely abrogated
- dose dependence of abrogation of GR15-induced cytotoxicity (NSC-34 cells; 3 μM GR15, 24 h): dose-dependently abrogated
- abrogation of PR15-induced cytotoxicity (NSC-34 cells; 3 μM PR15, 24 h, dose 1 μM): completely abrogated
- abrogation of PR15-induced cytotoxicity (NSC-34 cells; 3 μM PR15, 24 h, dose 3 μM): nearly completely abrogated
- dose dependence of abrogation of PR15-induced cytotoxicity (NSC-34 cells; 3 μM PR15, 24 h): dose-dependently abrogated
- cytotoxicity independently of GR15 and PR15 challenge (NSC-34 cells; no DRP, all doses (0.1-10 μM), likely solvent effects): induced low levels of cytotoxicity

Compound: CNCCN(C)Cc1c[nH]nc1-c1ccc(OC2CC(OCCC3CCOCC3)C2)cc1 (centres unmarked) [EPZ020411]
- dose with the greatest abrogation of GR15-induced dysmetabolism [1, 2]: 20 µM
- abrogation of GR15-induced dysmetabolism ([1]; 3 μM GR15, 24 h, inhibitor doses 2, 10 and 20 μM): partially abrogated
- dose dependence of abrogation of GR15-induced dysmetabolism ([1]; 3 μM GR15 challenge, 24 h): dose-dependently abrogated
- abrogation of PR15-induced dysmetabolism ([1]; 3 μM PR15, 24 h, inhibitor doses 10 and 20 μM): completely abrogated
- dose dependence of abrogation of PR15-induced dysmetabolism ([1]; 3 μM PR15 challenge, 24 h): dose-dependently abrogated
- dysmetabolism independently of GR and PR challenge ([1]; no DRP, doses 10 and 20 μM, not attributable to DMSO): did cause significant dysmetabolism
- dysmetabolism independently of GR and PR challenge ([1]; no DRP, other doses tested (0.2, 1, 2 μM)): not at other doses tested
- abrogation of GR15-induced cytotoxicity (NSC-34 cells; 3 μM GR15, 24 h, all doses but 0.2 μM (1, 2, 10, 20 μM)): partially abrogated
- dose dependence of abrogation of GR15-induced cytotoxicity (NSC-34 cells; 3 μM GR15, 24 h): dose-dependently abrogated
- dose with the greatest effect on GR15-induced cytotoxicity (NSC-34 cells; [2]): 20 µM
- abrogation of PR15-induced cytotoxicity (NSC-34 cells; 3 μM PR15, 24 h, all doses but 0.2 μM (1, 2, 10, 20 μM)): partially abrogated
- dose dependence of abrogation of PR15-induced cytotoxicity (NSC-34 cells; 3 μM PR15, 24 h): dose-dependently abrogated
- dose with the greatest effect on PR15-induced cytotoxicity (NSC-34 cells; 3 μM PR15, 24 h, doses 0.2-20 μM): 20 µM
- cytotoxicity independently of GR and PR challenge (NSC-34 cells; no DRP, doses 10 and 20 μM): did cause significant cytotoxicity

Compound: ADMe-GR15: asymmetrically dimethylated GR15, synthesized protein (Eurogentec) (GRGRGRGRGRGRGRGRGRGRGRGRGRGRGR; also: asymmetric arginine dimethylation, extent/places not given here)
- dysmetabolism compared with non-methylated GR15 [1]: consistently producing more dysmetabolism than non-methylated GR15
- cytotoxicity compared with non-methylated GR15 (NSC-34 cells): consistently producing more cytotoxicity than non-methylated GR15

Compound: CC(C)Oc1ccc(-c2c[nH]cc2CN(C)CCO)cc1 [MS094]
- abrogation of GR15-induced dysmetabolism ([1]; 3 μM GR15 challenge, 24 h, over all tested doses of the inhibitor): No doses of negative control MS094 abrogated dysmetabolism
- abrogation of PR15-induced dysmetabolism ([1]; 3 μM PR15 challenge, 24 h, over all tested doses of the inhibitor): No doses of negative control MS094 abrogated dysmetabolism
- abrogation of GR15-induced cytotoxicity (NSC-34 cells; 3 μM GR15, 24 h, over all tested doses (0.2-60 μM)): No doses of negative control MS094 abrogated cytotoxicity
- abrogation of PR15-induced cytotoxicity (NSC-34 cells; 3 μM PR15, 24 h, over all tested doses (0.2-60 μM)): No doses of negative control MS094 abrogated cytotoxicity
- cytotoxicity of inhibitor alone vs untreated controls (NSC-34 cells; no DRP, doses 10, 30 and 60 μM, at highest 2 doses likely DMSO-related): produced cytotoxicity
